Measured values from patent US10428044B2, “3-amino-1,5,6,7-tetrahydro-4H-indol-4-ones” (Bayer Pharma Aktiengesellschaft, priority 2014, dated 2019).
pIC50: −log10 of the molar value.

The compounds below were run against (recombinant) catalytic domain of human Bub1 (amino acids 704-1085) (Homo sapiens (Human), UniProt O43683) (assay: Bub1 kinase assay (TR-FRET)). Conditions: ATP 10 μM final, peptide substrate 1 μM final, 60 min at 22° C., read-out: Biological Assay: Bub1 kinase assay median IC50.
Chain of (recombinant) catalytic domain of human Bub1 (amino acids 704-1085) (O43683 704-1085): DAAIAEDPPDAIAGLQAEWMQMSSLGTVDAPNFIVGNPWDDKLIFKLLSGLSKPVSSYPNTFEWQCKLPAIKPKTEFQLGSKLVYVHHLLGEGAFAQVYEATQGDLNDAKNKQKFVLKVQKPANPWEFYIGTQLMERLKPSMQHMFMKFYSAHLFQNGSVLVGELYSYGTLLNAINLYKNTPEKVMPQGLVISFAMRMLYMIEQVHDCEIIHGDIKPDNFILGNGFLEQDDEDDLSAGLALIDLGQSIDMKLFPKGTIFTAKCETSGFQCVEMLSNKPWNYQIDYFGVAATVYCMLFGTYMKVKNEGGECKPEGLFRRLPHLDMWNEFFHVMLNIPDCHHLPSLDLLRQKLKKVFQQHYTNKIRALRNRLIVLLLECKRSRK
Assay type: biochemical
Method: Examples were tested in selected biological assays one or more times. When tested more than once, data are reported as either average values or as median values, wherein • the average value, also referred to as the arithmetic mean value, represents the sum of the values obtained divided by the number of times tested, and • the median value represents the middle number of the group of values when ranked in ascending or descending order. If the number of values in the data set is odd, the median is the middle value. If the number of values in the data set is even, the median is the arithmetic mean of the two middle values.
To this end, 100-fold concentrated compound solutions (in DMSO) were previously prepared by serial dilution (1:3.4) of 2 mM stocks in a clear low volume 384-well source microtiter plate (Greiner Bio-One, Frickenhausen, Germany), from which 50 nl of compounds were transferred into a black low volume test microtiter plate from the same supplier. […] The resulting mixture (5 μL final volume) was incubated at 22° C. during 60 min., and the reaction was stopped by the addition of 5 μL of an aqueous EDTA-solution (50 mM EDTA, in 100 mM HEPES pH 7.5 and 0.2% (w/v) bovine serum albumin) which also contained the TR-FRET detection reagents (0.2 μM streptavidin-XL665 [Cisbio Bioassays, Codolet, France] and 1 nM anti-phosho-Serine antibody [Merck Millipore, cat. #35-002] and 0.4 nM LANCE EU-W1024 labeled anti-mouse IgG antibody [Perkin-Elmer, product no. AD0077, alternatively a Terbium-cryptate-labeled anti-mouse IgG antibody from Cisbio Bioassays can be used]). The stopped reaction mixture was further incubated 1 h at 22° C. in order to allow the formation of complexes between peptides and detection reagents. Subsequently, the amount of product was evaluated by measurement of the resonance energy transfer from the Eu-chelate-antibody complex recognizing the Phosphoserine residue to the streptavidin-XL665 bound to the biotin moiety of the peptide. […] The data were normalised using two sets of control wells for high- (=enzyme reaction without inhibitor=0%=Minimum inhibition) and low- (=all assay components without enzyme=100%=Maximum inhibition) Bub1 activity. IC50 values were calculated by fitting the normalized inhibition data to a 4-parameter logistic equation (Minimum, Maximum, IC50, Hill; Y=Max+(Min−Max)/(1+(X/IC50)Hill)).
`CC1(C)CC(=O)c2c([nH]c(-c3ccnc(F)c3)c2Nc2cccc(F)c2)C1` [Example 24, 3-[(3-fluorophenyl)amino]-2-(2-fluoropyridin-4-yl)-6,6-dimethyl-1,5,6,7-tetrahydro-4H-indol-4-one] showed a pIC50 of 7.69.
Compound `CC1(C)CC(=O)c2c([nH]c(-c3ccncc3)c2Nc2ccccn2)C1` [Example 25, 6,6-dimethyl-2-(pyridin-4-yl)-3-(pyridin-2-ylamino)-1,5,6,7-tetrahydro-4H-indol-4-one] has a pIC50 of 7.58.
`CC1(C)CC(=O)c2c([nH]c(-c3ccncc3)c2Nc2ccc3ccoc3c2)C1` [Example 26, 3-(1-benzofuran-6-ylamino)-6,6-dimethyl-2-(pyridin-4-yl)-1,5,6,7-tetrahydro-4H-indol-4-one] gave a pIC50 of 7.49.
`CC1(C)CC(=O)c2c([nH]c(-c3ccnc4[nH]ccc34)c2Nc2ccccc2)C1` [Example 27, 6,6-dimethyl-3-(phenylamino)-2-(1H-pyrrolo[2,3-b]pyridin-4-yl)-1,5,6,7-tetrahydro-4H-indol-4-one] was tested, and the pIC50 was 7.36.
With `CCC1CC(=O)c2c([nH]c(-c3ccncc3)c2Nc2ccccc2)C1` (stereo not drawn) [Example 28, 6-ethyl-3-(phenylamino)-2-(pyridin-4-yl)-1,5,6,7-tetrahydro-4H-indol-4-one] the pIC50 was 8.23.
`CC(C)CC1CC(=O)c2c([nH]c(-c3ccncc3)c2Nc2ccccc2)C1` (stereo not drawn) [Example 29, 6-(2-methylpropyl)-3-(phenylamino)-2-(pyridin-4-yl)-1,5,6,7-tetrahydro-4H-indol-4-one] was tested, and the pIC50 was 8.21.
In the case of `CC1(C)CC(=O)c2c([nH]c(-c3ccncc3F)c2Nc2ccccc2)C1` [Example 30, 2-(3-fluoropyridin-4-yl)-6,6-dimethyl-3-(phenylamino)-1,5,6,7-tetrahydro-4H-indol-4-one], the pIC50 was 8.24.
With `CC1(C)CC(=O)c2c([nH]c(-c3ccncc3)c2Nc2cc(F)cc(F)c2)C1` [Example 31, 3-[(3,5-difluorophenyl)amino]-6,6-dimethyl-2-(pyridin-4-yl)-1,5,6,7-tetrahydro-4H-indol-4-one] the pIC50 was 8.26.
Work on `CC1(C)CC(=O)c2c([nH]c(-c3ccncc3)c2Nc2cc(F)c(F)c(F)c2)C1` [Example 32, 6,6-dimethyl-2-(pyridin-4-yl)-3-[(3,4,5-trifluorophenyl)amino]-1,5,6,7-tetrahydro-4H-indol-4-one] yielded a pIC50 of 7.80.
`O=C1CCCc2[nH]c(-c3ccncc3Cl)c(Nc3ccccc3)c21` [Example 33, 2-(3-chloropyridin-4-yl)-3-(phenylamino)-1,5,6,7-tetrahydro-4H-indol-4-one] showed a pIC50 of 7.75.
`CC1(C)CC(=O)c2c([nH]c(-c3ccnc4[nH]ncc34)c2Nc2ccccc2)C1` [Example 34, 6,6-dimethyl-3-(phenylamino)-2-(1H-pyrazolo[3,4-b]pyridin-4-yl)-1,5,6,7-tetrahydro-4H-indol-4-one] showed a pIC50 of 7.51.
`CCC(=O)Nc1cc(-c2[nH]c3c(c2Nc2ccccc2)C(=O)CC(C)(C)C3)ccn1` [Example 35, N-{4-[6,6-dimethyl-4-oxo-3-(phenylamino)-4,5,6,7-tetrahydro-1H-indol-2-yl]pyridin-2-yl}propanamide] was tested, and the pIC50 was 7.76.
For `CC(=O)Nc1cc(-c2[nH]c3c(c2Nc2ccccc2)C(=O)CC(C)(C)C3)ccn1` [Example 36, N-{4-[6,6-dimethyl-4-oxo-3-(phenylamino)-4,5,6,7-tetrahydro-1H-indol-2-yl]pyridin-2-yl}acetamide], the pIC50 was 7.58.
In the case of `O=C1CC2(CC2)Cc2[nH]c(-c3ccncc3)c(Nc3ccccc3)c21` [Example 37, 3′-(phenylamino)-2′-(pyridin-4-yl)-1′,7′-dihydrospiro[cyclopropane-1,6′-indol]-4′(5′H)-one], the pIC50 was 8.07.
Work on `O=C1CCCc2[nH]c(-c3ccncc3)c(Nc3ccc(F)c(F)c3)c21` [Example 38, 3-[(3,4-difluorophenyl)amino]-2-(pyridin-4-yl)-1,5,6,7-tetrahydro-4H-indol-4-one] yielded a pIC50 of 8.10.
For `CC(=O)Nc1cc(-c2[nH]c3c(c2Nc2ccccc2)C(=O)CCC3)ccn1` [Example 39, N-{4-[4-oxo-3-(phenylamino)-4,5,6,7-tetrahydro-1H-indol-2-yl]pyridin-2-yl}acetamide], the pIC50 was 7.83.
In the case of `CC(=O)Nc1cc(-c2[nH]c3c(c2Nc2cccc(F)c2)C(=O)CCC3)ccn1` [Example 40, N-(4-{3-[(3-fluorophenyl)amino]-4-oxo-4,5,6,7-tetrahydro-1H-indol-2-yl}pyridin-2-yl)acetamide], the pIC50 was 7.82.
`O=C1CCCc2[nH]c(-c3ccncc3)c(Nc3cccc(F)c3)c21` [Example 41, 3-[(3-fluorophenyl)amino]-2-(pyridin-4-yl)-1,5,6,7-tetrahydro-4H-indol-4-one] gave a pIC50 of 7.95.
`O=C1CCCc2[nH]c(-c3ccncc3)c(Nc3ccc(F)cc3)c21` [Example 42, 3-[(4-fluorophenyl)amino]-2-(pyridin-4-yl)-1,5,6,7-tetrahydro-4H-indol-4-one] gave a pIC50 of 7.64.
Compound `O=C1CC(C(F)(F)F)Cc2[nH]c(-c3ccncc3)c(Nc3cccc(F)c3)c21` (stereo not drawn) [Example 43, 3-[(3-fluorophenyl)amino]-2-(pyridin-4-yl)-6-(trifluoromethyl)-1,5,6,7-tetrahydro-4H-indol-4-one] has a pIC50 of 8.02.
`O=C1CCCc2[nH]c(-c3ccnc(F)c3)c(Nc3ccccc3)c21` [Example 44, 2-(2-fluoropyridin-4-yl)-3-(phenylamino)-1,5,6,7-tetrahydro-4H-indol-4-one] gave a pIC50 of 7.77.
With `CC1(C)CC(=O)c2c([nH]c(-c3ccncc3)c2Nc2cccc(-c3ccccc3)c2)C1` [Example 45, 3-(biphenyl-3-ylamino)-6,6-dimethyl-2-(pyridin-4-yl)-1,5,6,7-tetrahydro-4H-indol-4-one] the pIC50 was 7.68.
`CC1(C)CC(=O)c2c([nH]c(-c3ccnc(C#N)c3)c2Nc2ccccc2)C1` [Example 46, 4-[6,6-dimethyl-4-oxo-3-(phenylamino)-4,5,6,7-tetrahydro-1H-indol-2-yl]pyridine-2-carbonitrile] gave a pIC50 of 7.54.
`O=C1CCCc2[nH]c(-c3ccnc(NC(=O)C4CC4)c3)c(Nc3cccc(F)c3)c21` [Example 47, N-(4-{3-[(3-fluorophenyl)amino]-4-oxo-4,5,6,7-tetrahydro-1H-indol-2-yl}pyridin-2-yl)cyclopropanecarboxamide] showed a pIC50 of 7.86.
With `O=C1CCCc2[nH]c(-c3ccnc(NC(=O)C4CC4)c3)c(Nc3ccccc3)c21` [Example 48, N-{4-[4-oxo-3-(phenylamino)-4,5,6,7-tetrahydro-1H-indol-2-yl]pyridin-2-yl}cyclopropanecarboxamide] the pIC50 was 7.87.
`CC(C)C1CC(=O)c2c([nH]c(-c3ccnc(N)c3)c2Nc2ccccc2)C1` (stereo not drawn) [Example 49, 2-(2-aminopyridin-4-yl)-3-(phenylamino)-6-(propan-2-yl)-1,5,6,7-tetrahydro-4H-indol-4-one] gave a pIC50 of 7.88.
Work on `CC(C)C1CC(=O)c2c([nH]c(-c3ccnc(N)c3)c2Nc2cccc(F)c2)C1` (stereo not drawn) [Example 50, 2-(2-aminopyridin-4-yl)-3-[(3-fluorophenyl)amino]-6-(propan-2-yl)-1,5,6,7-tetrahydro-4H-indol-4-one] yielded a pIC50 of 7.44.
In the case of `CC1(C)CC(=O)c2c([nH]c(-c3ccncc3)c2Nc2cccc(C(F)(F)F)c2)C1` [Example 51, 6,6-dimethyl-2-(pyridin-4-yl)-3-{[3-(trifluoromethyl)phenyl]amino}-1,5,6,7-tetrahydro-4H-indol-4-one], the pIC50 was 6.87.
`COc1cccc(Nc2c(-c3ccncc3)[nH]c3c2C(=O)CC(C)(C)C3)c1` [Example 52, 3-[(3-methoxyphenyl)amino]-6,6-dimethyl-2-(pyridin-4-yl)-1,5,6,7-tetrahydro-4H-indol-4-one] showed a pIC50 of 7.00.
In the case of `Cc1ccccc1Nc1c(-c2ccncc2)[nH]c2c1C(=O)CC(C)(C)C2` [Example 53, 6,6-dimethyl-3-[(2-methylphenyl)amino]-2-(pyridin-4-yl)-1,5,6,7-tetrahydro-4H-indol-4-one], the pIC50 was 7.09.
Compound `Cc1ccc(Nc2c(-c3ccncc3)[nH]c3c2C(=O)CC(C)(C)C3)cc1` [Example 54, 6,6-dimethyl-3-[(4-methylphenyl)amino]-2-(pyridin-4-yl)-1,5,6,7-tetrahydro-4H-indol-4-one] has a pIC50 of 6.83.
Compound `CC1(C)CC(=O)c2c([nH]c(-c3ccnnc3)c2Nc2ccccc2)C1` [Example 55, 6,6-dimethyl-3-(phenylamino)-2-(pyridazin-4-yl)-1,5,6,7-tetrahydro-4H-indol-4-one] has a pIC50 of 6.35.
`COc1cccc(Nc2c(-c3ccncc3)[nH]c3c2C(=O)CC(C)(C)C3)c1OC` [Example 56, 3-[(2,3-dimethoxyphenyl)amino]-6,6-dimethyl-2-(pyridin-4-yl)-1,5,6,7-tetrahydro-4H-indol-4-one] gave a pIC50 of 6.18.
